These molecules were tested against PIK3CD (Human) (UniProt O00329) (assay: Assessment of PIK3CD Kinase Activity (Scintillation Proximity Assay)).
Sequence of PIK3CD (Human) (O00329 whole entry, looked up): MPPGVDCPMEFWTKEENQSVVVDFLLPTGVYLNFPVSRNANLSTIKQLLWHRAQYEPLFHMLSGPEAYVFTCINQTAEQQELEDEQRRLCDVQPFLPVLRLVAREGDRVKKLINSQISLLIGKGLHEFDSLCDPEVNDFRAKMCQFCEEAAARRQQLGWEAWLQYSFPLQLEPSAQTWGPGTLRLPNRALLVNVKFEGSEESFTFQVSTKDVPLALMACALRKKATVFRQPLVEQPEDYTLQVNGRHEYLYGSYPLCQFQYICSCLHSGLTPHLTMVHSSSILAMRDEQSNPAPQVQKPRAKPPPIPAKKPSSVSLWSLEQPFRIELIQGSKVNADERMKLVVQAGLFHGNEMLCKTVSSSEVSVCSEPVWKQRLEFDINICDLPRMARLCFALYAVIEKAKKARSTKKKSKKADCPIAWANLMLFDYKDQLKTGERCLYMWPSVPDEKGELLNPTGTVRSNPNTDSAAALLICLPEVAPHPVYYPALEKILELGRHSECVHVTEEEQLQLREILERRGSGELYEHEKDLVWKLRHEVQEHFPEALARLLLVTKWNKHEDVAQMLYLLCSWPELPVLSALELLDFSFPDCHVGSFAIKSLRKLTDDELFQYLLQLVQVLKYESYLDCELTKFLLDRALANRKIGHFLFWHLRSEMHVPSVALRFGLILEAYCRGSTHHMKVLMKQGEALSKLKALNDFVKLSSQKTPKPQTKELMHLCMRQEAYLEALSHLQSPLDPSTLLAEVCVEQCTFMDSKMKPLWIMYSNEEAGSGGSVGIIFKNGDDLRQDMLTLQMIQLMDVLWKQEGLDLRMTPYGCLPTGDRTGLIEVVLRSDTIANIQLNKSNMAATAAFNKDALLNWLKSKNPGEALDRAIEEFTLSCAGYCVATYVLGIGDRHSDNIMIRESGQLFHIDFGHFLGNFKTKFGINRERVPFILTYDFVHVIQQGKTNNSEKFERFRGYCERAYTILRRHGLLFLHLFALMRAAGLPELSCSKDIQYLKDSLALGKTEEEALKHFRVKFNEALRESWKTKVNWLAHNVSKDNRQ

Row | SMILES | IC50
1 | COc1c(C(C)n2nc(C)c3c(N)ncnc32)cc(Cl)c(C)c1-c1ccnc(N(C)C)c1 (stereo not drawn) | ≤ 10 nM
2 | CCOc1c(C(C)n2nc(C)c3c(N)ncnc32)cc(Cl)c(C#N)c1N1CC(C#N)C1 (stereo not drawn) | ≤ 10 nM
3 | CCOc1c(C(C)n2nc(C)c3c(N)ncnc32)cc(Cl)c(C#N)c1C1CN(S(=O)(=O)C2CC2)C1 (stereo not drawn) | ≤ 10 nM
4 | CCOc1c(C(C)n2nc(C)c3c(N)ncnc32)cc(C)c(C#N)c1C1CN(C[C@H](C)O)C1 (stereo partly drawn) | ≤ 10 nM
5 | CCOc1c(C(C)n2nc(C)c3c(N)ncnc32)cc(Cl)c(C#N)c1C1CN(C(C)CO)C1 (stereo not drawn) | ≤ 10 nM
6 | COc1c(C(C)n2nc(C)c3c(N)ncnc32)cc(Cl)c(F)c1C1CN(C[C@@H](C)O)C1 (stereo partly drawn) | ≤ 10 nM
7 | COc1c(C(C)n2nc(C)c3c(N)ncnc32)cc(Cl)c(C)c1C1CN(C(C)CF)C1 (stereo not drawn) | ≤ 10 nM
8 | COc1c(C(C)n2nc(C)c3c(N)ncnc32)cc(Cl)c(C)c1-c1cncc(C(=O)N2CCC(O)CC2)c1 (stereo not drawn) | ≤ 10 nM
9 | COc1c(C(C)n2nc(C)c3c(N)ncnc32)cc(Cl)c(F)c1C1CN(CC(C)(C)O)C1 (stereo not drawn) | ≤ 10 nM
10 | CCOc1c(C(C)n2nc(-c3ccc(C(=O)NC)nc3)c3c(N)ncnc32)cc(Cl)c(C)c1-c1ccc(C(=O)N(C)C)nc1 (stereo not drawn) | ≤ 10 nM
11 | CCOc1c(C(C)n2nc(C)c3c(N)ncnc32)cc(Cl)c(C#N)c1C1CN(C(COC)COC)C1 (stereo not drawn) | ≤ 10 nM
12 | CCOc1c(C(C)n2nc(C)c3c(N)ncnc32)cc(C)c(C#N)c1C1CN(C(=O)C(C)(C)O)C1 (stereo not drawn) | ≤ 10 nM
13 | CCOc1c(C(C)n2nc(-c3cccc(F)c3)c3c(N)ncnc32)cc(Cl)c(C)c1-c1ccc(C(=O)N(C)C)nc1 (stereo not drawn) | ≤ 10 nM
14 | CCOc1c(C(C)n2nc(C)c3c(N)ncnc32)cc(Cl)c(F)c1C1CN(C[C@@H](C)O)C1 (stereo partly drawn) | ≤ 10 nM
15 | CCOc1c(C(C)n2nc(C)c3c(N)ncnc32)cc(Cl)c(C)c1C1CN(CC(C)(C)O)C1 (stereo not drawn) | ≤ 10 nM
16 | CCOc1c(C(C)n2nc(C3CC3)c3c(N)ncnc32)cc(Cl)c(C)c1-c1ccc(C(=O)N(C)C)nc1 (stereo not drawn) | ≤ 10 nM
17 | COc1c(C(C)n2nc(C)c3c(N)ncnc32)cc(Cl)c(C)c1C1CN(C[C@@H](C)O)C1 (stereo partly drawn) | ≤ 10 nM
18 | COc1c(C(C)n2ccc(=O)c3c(N)ncnc32)cc(Cl)c(C)c1-c1cccc(S(=O)(=O)N(C)C)c1 (stereo not drawn) | ≤ 10 nM
19 | CCOc1c(C(C)n2nc(-c3ccncc3)c3c(N)ncnc32)cc(Cl)c(C)c1-c1ccc(C(=O)N(C)C)nc1 (stereo not drawn) | ≤ 10 nM
20 | CCOc1c(C(C)n2nc(C)c3c(N)ncnc32)cc(Cl)c(C#N)c1C1CN(C(=O)C2CC2)C1 (stereo not drawn) | ≤ 10 nM
21 | CCOc1c(C(C)n2nc(C)c3c(N)ncnc32)cc(Cl)c(C#N)c1C1CN(C(=O)N(C)C)C1 (stereo not drawn) | ≤ 10 nM
22 | COc1c(C(C)n2nc(C)c3c(N)ncnc32)cc(Cl)c(C)c1-c1ccnc(C(=O)NCCO)c1 (stereo not drawn) | ≤ 10 nM

Row | SMILES | IC50
23 | CCOc1c(C(C)n2nc(-c3cccnc3)c3c(N)ncnc32)cc(Cl)c(C)c1-c1ccc(C(=O)N(C)C)nc1 (stereo not drawn) | ≤ 10 nM
24 | COc1c(C(C)n2nc(C)c3c(N)ncnc32)cc(Cl)c(C)c1-c1ccc(C(=O)NCCO)nc1 (stereo not drawn) | ≤ 10 nM
25 | CCOc1c(C(C)n2nc(C)c3c(N)ncnc32)cc(Cl)c(C#N)c1C1CN(CC)C1 (stereo not drawn) | ≤ 10 nM
26 | COc1c(C(C)n2nc(C)c3c(N)ncnc32)cc(Cl)c(C#N)c1C1CN(CC(C)C)C1 (stereo not drawn) | ≤ 10 nM
27 | COc1c(C(C)n2nc(C)c3c(N)ncnc32)cc(Cl)c(C)c1C1CN(C(CO)C(F)(F)F)C1 (stereo not drawn) | ≤ 10 nM
28 | COc1c(C(C)n2nc(C)c3c(N)nccc32)cc(Cl)c(C)c1-c1ccc(C(=O)N(C)C)nc1 (stereo not drawn) | 50 to 200 nM
29 | CCOc1c(C(C)n2nc(C)c3c(N)ncnc32)cc(Cl)c(C#N)c1-c1cncc(S(C)(=O)=O)c1 (stereo not drawn) | ≤ 10 nM
30 | CCNC(=O)c1c(C)c(Cl)cc(C(C)n2nc(-c3cnc4[nH]ccc4c3)c3c(N)ncnc32)c1OCC (stereo not drawn) | ≤ 10 nM
31 | CCOc1c(C(C)n2nc(C)c3c(N)ncnc32)cc(Cl)c(F)c1C1CN(CC(F)F)C1 (stereo not drawn) | ≤ 10 nM
32 | CCOc1c(C(C)n2nc(C)c3c(N)ncnc32)cc(Cl)c(C#N)c1C1CN(C(C)=O)C1 (stereo not drawn) | ≤ 10 nM
33 | CCOc1c(C(C)n2nc(-c3cn[nH]c3)c3c(N)ncnc32)cc(Cl)c(C)c1-c1ccc(C(=O)N(C)C)nc1 (stereo not drawn) | ≤ 10 nM
34 | COc1c(C(C)n2nc(C)c3c(N)ncnc32)cc(Cl)c(Cl)c1C1CN(CC#N)C1 (stereo not drawn) | ≤ 10 nM
35 | COc1c(C(C)n2nc(C)c3c(N)ncnc32)cc(Cl)c(C)c1C1CN([C@@H](C)CO)C1 (stereo partly drawn) | ≤ 10 nM
36 | COc1c(C(C)n2ccc(=O)c3c(N)ncnc32)cc(Cl)c(C)c1-c1cncnc1 (stereo not drawn) | ≤ 10 nM
37 | COc1c(C(C)n2nc(C)c3c(N)ncnc32)cc(Cl)c(C)c1C1CN(C(=O)[C@@H](C)O)C1 (stereo partly drawn) | ≤ 10 nM
38 | CCC(=O)N1CC(c2c(C#N)c(Cl)cc(C(C)n3nc(C)c4c(N)ncnc43)c2OC)C1 (stereo not drawn) | ≤ 10 nM
39 | CCOc1c(C(C)n2nc(C)c3c(N)ncnc32)cc(Cl)c(F)c1C1CN(C[C@H](C)O)C1 (stereo partly drawn) | ≤ 10 nM
40 | COc1c(C(C)n2nc(C)c3c(N)ncnc32)cc(Cl)c(C)c1-c1cncc(C(=O)N(C)C2CC2)c1 (stereo not drawn) | ≤ 10 nM
41 | CCOc1c(C(C)n2nc(CO)c3c(N)ncnc32)cc(Cl)c(C)c1-c1ccc(C(=O)N(C)C)nc1 (stereo not drawn) | ≤ 10 nM
42 | COc1c(C(C)n2nc(C)c3c(N)ncnc32)cc(Cl)c(C)c1C1CC1 (stereo not drawn) | 10 to 50 nM
43 | CCOc1c(C(C)n2nc(C)c3c(N)ncnc32)cc(Cl)c(F)c1C1CN(CC(F)(F)F)C1 (stereo not drawn) | ≤ 10 nM
44 | CCN1CC(c2c(C)c(Cl)cc(C(C)n3nc(C)c4c(N)ncnc43)c2OC)C1 (stereo not drawn) | ≤ 10 nM

Row | SMILES | IC50
45 | COc1c(C(C)n2nc(C)c3c(N)ncnc32)cc(Cl)c(C#N)c1C1CN(C)C1 (stereo not drawn) | ≤ 10 nM
46 | CCOc1c(C(C)n2nc(-c3cnn(CCO)c3)c3c(N)ncnc32)cc(Cl)c(C)c1-c1ccc(C(=O)N(C)C)nc1 (stereo not drawn) | ≤ 10 nM
47 | COc1c(C(C)n2nc(C)c3c(N)ncnc32)cc(Cl)c(C#N)c1C1CN(C(C)=O)C1 (stereo not drawn) | ≤ 10 nM
48 | COc1c(C(C)n2nc(C)c3c(N)ncnc32)cc(Cl)c(Cl)c1C1CN(C2COC2)C1 (stereo not drawn) | ≤ 10 nM
49 | COc1c(C(C)n2nc(C)c3c(N)ncnc32)cc(Cl)c(F)c1C1CN(C[C@H](C)O)C1 (stereo partly drawn) | ≤ 10 nM
50 | COc1c(C(C)n2nc(C)c3c(N)ncnc32)cc(Cl)c(C)c1-c1ccc(OCCO)nc1 (stereo not drawn) | ≤ 10 nM
51 | CCOC(=O)N1CC(c2c(C#N)c(Cl)cc(C(C)n3nc(C)c4c(N)ncnc43)c2OCC)C1 (stereo not drawn) | ≤ 10 nM
52 | CCOc1c(C(C)n2nc(C)c3c(N)ncnc32)cc(Cl)c(C)c1C1CN(C(=O)[C@H](C)O)C1 (stereo partly drawn) | ≤ 10 nM
53 | CCNC(=O)c1c(C)c(Cl)cc(C(C)n2nc(-c3ccc4oc(N)nc4c3)c3c(N)ncnc32)c1OCC (stereo not drawn) | ≤ 10 nM
54 | COc1c(C(C)n2ncc3c(N)ncnc32)cc(Cl)c(C)c1-c1ccnc(C(=O)NCCO)c1 (stereo not drawn) | 50 to 200 nM
55 | COc1c(C(C)n2nc(C)c3c(N)ncnc32)cc(Cl)c(C#N)c1C1CN(CC2CC2)C1 (stereo not drawn) | ≤ 10 nM
56 | CCOc1c(C(C)n2nc(C)c3c(N)ncnc32)cc(Cl)c(C#N)c1C1CN(CC#N)C1 (stereo not drawn) | ≤ 10 nM
57 | COc1c(C(C)n2nc(C)c3c(N)ncnc32)cc(Cl)c(Cl)c1C1CN(C(C)=O)C1 (stereo not drawn) | ≤ 10 nM
58 | CCOc1c(C(C)n2nc(C)c3c(N)ncnc32)cc(Cl)c(C#N)c1C1CN(C(=O)NC)C1 (stereo not drawn) | ≤ 10 nM
59 | COc1c(C(C)n2nc(C)c3c(N)ncnc32)cc(Cl)c(C)c1C1CN(C2(CC#N)CCC2)C1 (stereo not drawn) | ≤ 10 nM
60 | CCOc1c(C(C)n2nc(C)c3c(N)ncnc32)cc(Cl)c(F)c1C1COC(=O)N1 (stereo not drawn) | ≤ 10 nM
61 | COc1c(C(C)n2nc(C)c3c(N)ncnc32)cc(Cl)c(C#N)c1C1CN(CCO)C1 (stereo not drawn) | ≤ 10 nM
62 | CCNC(=O)c1c(C)c(Cl)cc(C(C)n2nc(-c3ccc4[nH]ccc4c3)c3c(N)ncnc32)c1OCC (stereo not drawn) | ≤ 10 nM
63 | COc1c(C(C)n2nc(C(F)F)c3c(N)ncnc32)cc(Cl)c(F)c1C1CN(CCO)C1 (stereo not drawn) | ≤ 10 nM
64 | COc1c(C(C)n2nc(C)c3c(N)ncnc32)cc(Cl)c(F)c1C1CN(C)C1 (stereo not drawn) | ≤ 10 nM
65 | COc1c(C(C)n2nc(C)c3c(N)ncnc32)cc(Cl)c(C)c1C1CN(C(=O)[C@H](C)O)C1 (stereo partly drawn) | ≤ 10 nM
66 | CCNC(=O)c1c(C)c(Cl)cc(C(C)n2nc(C)c3c(N)ncnc32)c1-c1cc(F)cc(F)c1 (stereo not drawn) | ≤ 10 nM

Row | SMILES | IC50
67 | COc1c(C(C)n2nc(-c3cn[nH]c3)c3c(N)ncnc32)cc(Cl)c(C)c1C1CN(CC#N)C1 (stereo not drawn) | ≤ 10 nM
68 | COc1c(C(C)n2nc(C)c3c(N)ncnc32)cc(C#N)c(C)c1-c1ccnc(C(=O)N(C)CCO)c1 (stereo not drawn) | 10 to 50 nM
69 | CCNC(=O)N1CC(c2c(C#N)c(Cl)cc(C(C)n3nc(C)c4c(N)ncnc43)c2OC)C1 (stereo not drawn) | ≤ 10 nM
70 | CCOc1c(C(C)n2nc(I)c3c(N)ncnc32)cc(Cl)c(C)c1-c1ccc(C(=O)N(C)C)nc1 (stereo not drawn) | ≤ 10 nM
71 | COc1c(C(C)n2nc(C)c3c(N)ncnc32)cc(Cl)c(C#N)c1-c1cncc(S(C)(=O)=O)c1 (stereo not drawn) | ≤ 10 nM
72 | CCC(=O)N1CC(c2c(C)c(Cl)cc(C(C)n3nc(C)c4c(N)ncnc43)c2OC)C1 (stereo not drawn) | ≤ 10 nM
73 | CNC(=O)N1CC(c2c(C)c(Cl)cc(C(C)n3nc(C)c4c(N)ncnc43)c2OC)C1 (stereo not drawn) | ≤ 10 nM
74 | CCOc1c(C(C)n2nc(C)c3c(N)ncnc32)cc(Cl)c(C#N)c1-c1cncc(C#N)c1 (stereo not drawn) | ≤ 10 nM
75 | CCOc1c(C(C)n2nc(C)c3c(N)ncnc32)cc(Cl)c(C)c1C1CN(C(=O)[C@@H](C)O)C1 (stereo partly drawn) | ≤ 10 nM
76 | CCOc1c(C(C)n2nc(C)c3c(N)ncnc32)cc(Cl)c(C#N)c1-c1cncc(-c2ncco2)c1 (stereo not drawn) | ≤ 10 nM
77 | CCOc1c(C(C)n2nc(C)c3c(N)ncnc32)cc(Cl)c(F)c1C1CN(CC)C1 (stereo not drawn) | ≤ 10 nM
78 | COc1c(C(C)n2nc(C)c3c(N)ncnc32)cc(Cl)c(C)c1C1CN(CC(C)C)C1 (stereo not drawn) | ≤ 10 nM
79 | COc1c(C(C)n2nc(C)c3c(N)ncnc32)cc(Cl)c(C)c1C1CN(C2CCOCC2)C1 (stereo not drawn) | ≤ 10 nM
80 | COc1c(C(C)n2nc(C)c3c(N)ncnc32)cc(Cl)c(Cl)c1C1CN(CCO)C1 (stereo not drawn) | ≤ 10 nM
81 | CCOc1c(C(C)n2nc(C)c3c(N)ncnc32)cc(Cl)c(F)c1C1CNC(=O)C1 (stereo not drawn) | ≤ 10 nM
82 | COc1c(C(C)n2nc(C(F)F)c3c(N)ncnc32)cc(C#N)c(C)c1C1CN(C(C)=O)C1 (stereo not drawn) | ≤ 10 nM
83 | COc1c(C(C)n2nc(C)c3c(N)ncnc32)cc(Cl)c(C#N)c1C1CN(C(=O)OC(C)C)C1 (stereo not drawn) | ≤ 10 nM
84 | CCOc1c(C(C)n2nc(C)c3c(N)ncnc32)cc(Cl)c(C#N)c1C1CCOC1 (stereo not drawn) | ≤ 10 nM
85 | CCOc1c(C(C)n2nc(C)c3c(N)ncnc32)cc(Cl)c(C#N)c1-c1cncc(C(=O)N(C)C)c1 (stereo not drawn) | ≤ 10 nM
86 | COc1c(C(C)n2nc(C)c3c(N)ncnc32)cc(Cl)c(C)c1C1CN(C(=O)C(C)(C)O)C1 (stereo not drawn) | ≤ 10 nM
87 | CCOc1c(C(C)n2nc(C#C[C@H](C)O)c3c(N)ncnc32)cc(Cl)c(C)c1-c1ccc(C(=O)N(C)C)nc1 (stereo partly drawn) | ≤ 10 nM
88 | COc1c(C(C)n2nc(C)c3c(N)ncnc32)cc(Cl)c(C#N)c1C1CN(S(=O)(=O)C2CC2)C1 (stereo not drawn) | ≤ 10 nM

— the Kinase Knowledgebase extract (Sharma et al. 2016)
